Test results published in PMC5387711 (Cell Discovery, 2017).

Biological target: T1, CARF (hCARF; collaborator of ARF) (Homo sapiens, UniProt Q9NXV6)
T1 construct: gene CDKN2AIP; full length; site Cys-516 in C-terminal fragment C1
T1 sequence (Q9NXV6 2-580): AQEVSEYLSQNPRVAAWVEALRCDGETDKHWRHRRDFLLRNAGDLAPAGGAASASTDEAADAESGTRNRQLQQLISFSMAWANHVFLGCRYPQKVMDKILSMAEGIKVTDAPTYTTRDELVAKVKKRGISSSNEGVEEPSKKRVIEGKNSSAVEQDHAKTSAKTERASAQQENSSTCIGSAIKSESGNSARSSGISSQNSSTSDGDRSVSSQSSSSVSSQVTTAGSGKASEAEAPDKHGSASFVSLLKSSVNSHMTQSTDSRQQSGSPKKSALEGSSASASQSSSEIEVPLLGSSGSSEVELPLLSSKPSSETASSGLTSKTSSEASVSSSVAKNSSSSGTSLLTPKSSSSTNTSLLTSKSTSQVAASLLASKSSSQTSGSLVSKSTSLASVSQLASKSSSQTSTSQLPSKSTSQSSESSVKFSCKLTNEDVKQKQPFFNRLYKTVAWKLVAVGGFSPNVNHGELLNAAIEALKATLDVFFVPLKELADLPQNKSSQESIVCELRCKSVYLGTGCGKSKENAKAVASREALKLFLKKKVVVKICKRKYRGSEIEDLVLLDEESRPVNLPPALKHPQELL
Experiment: competition with S-614 for bead-bound His6-hCARF
Format: binding
Details: 15 uM NC043 against 7.5 uM S-614, 1 h, 4 C; covalent (Cys-516)

**Q.** How did the “competition with S-614 for bead-bound His6-hCARF” value turn out when `C=C1C(=O)[C@]23CC[C@H]1C[C@H]2[C@@]12CCC[C@@](C)(COC1=O)[C@H]2C[C@H]3O` [NC043] was run?
**A.** Its value is “S-614 directly binds to CARF, which could be competed off by NC043”.
